In US20050137121A1, “Inhibition of invasive remodelling” (priority 1996, published 2005):
Where “and” joins values, the source holds several entries; their conditions need not be identical. Identical values can stand only once. Like-named read-outs stand apart in the source and are kept apart here. Marks after values point to notes of the source that are not given here.

Experiments:
plasmin = plasmin (Homo sapiens, UniProt P00747); conditions: very weak inhibition; a million-fold higher than for the metalloproteases; cited from earlier work
Chain of plasmin (P00747 581-810 limits assumed, species assumed): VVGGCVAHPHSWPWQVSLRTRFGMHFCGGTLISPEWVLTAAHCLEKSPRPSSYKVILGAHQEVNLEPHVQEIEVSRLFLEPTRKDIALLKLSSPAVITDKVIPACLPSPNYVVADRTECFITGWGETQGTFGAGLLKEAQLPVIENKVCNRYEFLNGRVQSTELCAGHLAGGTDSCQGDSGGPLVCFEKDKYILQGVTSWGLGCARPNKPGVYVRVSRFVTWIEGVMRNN
Chain of plasmin (P00747 97-580 partner limits assumed, species assumed): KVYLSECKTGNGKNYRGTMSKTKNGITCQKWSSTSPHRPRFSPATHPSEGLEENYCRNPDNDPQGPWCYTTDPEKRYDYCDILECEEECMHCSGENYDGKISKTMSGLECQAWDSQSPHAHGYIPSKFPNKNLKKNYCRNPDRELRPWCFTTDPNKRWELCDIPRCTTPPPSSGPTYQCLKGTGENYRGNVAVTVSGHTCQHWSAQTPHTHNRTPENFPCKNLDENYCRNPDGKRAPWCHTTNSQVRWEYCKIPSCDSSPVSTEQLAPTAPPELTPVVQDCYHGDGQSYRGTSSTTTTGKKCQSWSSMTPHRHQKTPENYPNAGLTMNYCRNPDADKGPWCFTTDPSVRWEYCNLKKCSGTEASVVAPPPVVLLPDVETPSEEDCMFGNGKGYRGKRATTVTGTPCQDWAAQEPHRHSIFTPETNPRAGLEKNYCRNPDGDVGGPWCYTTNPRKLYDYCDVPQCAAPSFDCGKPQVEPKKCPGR

plg^+/+ mice [1] = assay: Post-lactational mammary gland involution (gland weight); assay type: in vivo, mouse
Description: (§1) After mice had given birth, the litter was taken away from the mother and adjusted to eight pups, adding pups from other mothers if necessary in order to provide a constant feeding load on each mother. Lactation and feeding with the eight pups were allowed to proceed for 7-8 days, at which time the litter was removed (day 1).

plg^−/− mice [2] = assay: as above; assay type: in vivo, mouse
Description: as §1

plg^+/+ mice [3] = assay: Post-partum uterine involution (uterus weight); assay type: in vivo, mouse
Description: (§2) Treatment was continued to 4 days post-partum and on the fifth day post-partum the mice were sacrificed and the uteri removed, dissected free of adhering fatty tissue, and blotted dry before weighing.

plg^−/− mice [4] = assay: Post-partum uterine involution (uterus weight); assay type: in vivo, mouse
Description: as §2

plg^−/− mice [5] = assay: Wound healing, 20 mm full thickness skin incision; assay type: in vivo, mouse; conditions: Galardin 2.5 mg i.p. once daily
Description: The methods used followed those described by Rømer et al, 1996. Four groups of mice were set up, consisting of 12 plg^−/− mice (group 1), another 12 plg^−/− mice (group 2), 12 plg^+/+ mice (group 3) and another 12 plg^+/+ mice (group 4). All mice were then wounded with a standardised 20 mm long, full thickness skin incision on the back.
(§3) Each day after wounding the length of the open wounds was carefully measured and recorded. The time taken for each skin wound to completely close was also noted.

[6] = tested on: gelatinase B, collagenase-3, stromelysin-1, gelatinase A mRNA; assay: MMP mRNA expression in wound tissue by in situ hybridization; assay type: in vivo, mouse; conditions: wild-type and Plg-deficient mice, 100 mg/kg daily, versus mock treated
Experimental: In parallel experiments, the mice were sacrificed and tissue sections prepared from the wound site. The tissue sections were analyzed for expression of various metalloproteases by in situ hybridisation and for matrix content by staining.
In situ hybridization. […] The mouse macrophage elastase expression system was investigated with a single probe, while the expression of all other metalloproteases were investigated with two different non-overlapping probes, which in all cases gave identical results.

Lewis lung carcinoma = tested on: Lewis lung carcinoma
Experimental: Four groups of 17 mice were injected subcutaneously with Lewis lung carcinoma tissue mince (approx. 1.0×10^6 cells). The first group (CON) were treated only with buffered vehicle. The second group (TA/AP) was treated i.p. three times each day with a mixture of tranexamic acid (TA) and aprotinin (AP), so that the total dosage was 10 mg TA and 13,000 KIU AP per day per mouse. […] The tumour growth in the mice was monitored every 2-3 days by careful measurement with callipers of the longest and shortest axes of the palpable tumours, and the calculated volume was plotted as a function of time. The growth rate of the tumours was followed until death and the survival of mice in the four groups was analyzed by a Kaplan-Meier plot. Histological sections from the primary murine Lewis Lung carcinoma were analyzed by in situ hybridization for the expression of stromelysin-1 and gelatinase-B.

[7] = molecular target: angiotensin converting enzyme (ACE) (Homo sapiens, UniProt P12821); conditions: very weak inhibition; a million-fold higher than for the metalloproteases; cited from earlier work
Chain of angiotensin converting enzyme (ACE) (P12821 30-1306, species assumed): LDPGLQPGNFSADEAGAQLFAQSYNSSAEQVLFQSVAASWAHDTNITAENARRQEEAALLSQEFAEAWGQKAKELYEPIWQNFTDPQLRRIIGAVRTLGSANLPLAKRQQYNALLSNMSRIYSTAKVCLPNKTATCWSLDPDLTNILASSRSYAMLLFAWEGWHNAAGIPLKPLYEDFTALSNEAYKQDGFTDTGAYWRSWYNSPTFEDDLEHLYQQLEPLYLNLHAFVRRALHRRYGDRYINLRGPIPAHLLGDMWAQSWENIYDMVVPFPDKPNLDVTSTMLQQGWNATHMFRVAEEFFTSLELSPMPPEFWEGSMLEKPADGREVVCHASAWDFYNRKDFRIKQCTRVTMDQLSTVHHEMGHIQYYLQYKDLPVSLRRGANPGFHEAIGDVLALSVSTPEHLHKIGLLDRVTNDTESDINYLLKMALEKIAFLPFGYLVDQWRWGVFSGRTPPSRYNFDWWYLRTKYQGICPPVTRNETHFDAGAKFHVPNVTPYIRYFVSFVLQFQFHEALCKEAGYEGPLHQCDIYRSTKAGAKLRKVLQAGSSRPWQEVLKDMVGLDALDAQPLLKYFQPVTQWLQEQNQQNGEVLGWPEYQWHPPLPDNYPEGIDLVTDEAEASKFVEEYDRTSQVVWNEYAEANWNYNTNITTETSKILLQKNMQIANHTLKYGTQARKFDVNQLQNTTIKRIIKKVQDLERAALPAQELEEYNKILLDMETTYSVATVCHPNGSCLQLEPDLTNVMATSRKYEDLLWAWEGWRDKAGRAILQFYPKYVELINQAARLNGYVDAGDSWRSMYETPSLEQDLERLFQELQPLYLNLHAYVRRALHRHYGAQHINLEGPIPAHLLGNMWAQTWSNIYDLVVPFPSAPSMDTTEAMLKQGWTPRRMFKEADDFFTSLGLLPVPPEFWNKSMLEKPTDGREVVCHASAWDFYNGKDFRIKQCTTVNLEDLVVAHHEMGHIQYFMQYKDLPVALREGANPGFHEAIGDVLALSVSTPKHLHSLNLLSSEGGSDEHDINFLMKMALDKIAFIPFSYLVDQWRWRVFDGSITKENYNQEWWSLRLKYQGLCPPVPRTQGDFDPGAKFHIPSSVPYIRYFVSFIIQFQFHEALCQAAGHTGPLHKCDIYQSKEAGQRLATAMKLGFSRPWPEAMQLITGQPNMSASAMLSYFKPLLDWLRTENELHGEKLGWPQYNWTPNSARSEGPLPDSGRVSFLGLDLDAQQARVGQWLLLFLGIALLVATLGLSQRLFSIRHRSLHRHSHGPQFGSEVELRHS

plg^+/+ mice [8] = assay: Wound healing, 20 mm full thickness skin incision; assay type: in vivo, mouse; conditions: for time after which all wounds were healed: aprotinin 13,000 KIU and/or tranexamic acid 10 mg per day in three i.p. injections, untreated 17 days
Description: Four groups of mice were set up, consisting of 12 plg^−/− mice (group 1), another 12 plg^−/− mice (group 2), 12 plg^+/+ mice (group 3) and another 12 plg^+/+ mice (group 4). All mice were then wounded with a standardised 20 mm long, full thickness skin incision on the back.
as §3
(§4) The time taken for each skin wound to completely close was also noted.
as §4, §4

stromelysin-1 (MMP-3) = stromelysin-1 (MMP-3) (Homo sapiens, UniProt P08254); conditions: cited from earlier work
Chain of stromelysin-1 (MMP-3) (P08254 100-477, species assumed): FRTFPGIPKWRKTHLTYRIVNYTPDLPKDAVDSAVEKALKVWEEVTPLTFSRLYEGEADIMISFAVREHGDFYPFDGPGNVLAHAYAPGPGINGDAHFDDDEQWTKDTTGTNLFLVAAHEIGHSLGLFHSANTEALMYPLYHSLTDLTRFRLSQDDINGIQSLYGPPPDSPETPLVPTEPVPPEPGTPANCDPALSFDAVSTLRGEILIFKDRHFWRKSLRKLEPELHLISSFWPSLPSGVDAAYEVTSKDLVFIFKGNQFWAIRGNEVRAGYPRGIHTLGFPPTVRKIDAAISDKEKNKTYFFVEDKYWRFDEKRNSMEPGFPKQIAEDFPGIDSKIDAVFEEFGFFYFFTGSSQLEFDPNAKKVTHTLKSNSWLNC

plg^+/+ mice [9] = conditions: Galardin 2.5 mg, aprotinin 13,000 KIU and tranexamic acid 10 mg per day i.p.
Description: In the evening, wild-type (plg^+/+) female mice were placed together with plg^+/+ male mice of proven potency. Bach morning the females were closely examined for the characteristic vaginal “plugs” formed after mating, and the mated females were removed and allocated to four groups.

plg^−/− mice [10] = tested on: plg^−/− mice
Description: In the evening, female plg^−/− mice (8-10 weeks old) were placed in cages together with male plg^−/− mice of proven potency.

plg^+/+ mice [11] = conditions: 2.5 mg i.p. daily, 5 mice
Plg-deficient mice = assay: Keratinocyte migration distance in skin wounds (morphometry); assay type: in vivo, mouse; conditions: 100 mg/kg daily for 7 days after skin wounding
Experimental: (§5) Keratinocyte migration. […] 18-20 sections of wound tissue from each group of mice were then analyzed microscopically, and the keratinocyte migration distance along the base of the epidermal outgrowth from the wound edge to the tip of the wedge (see Rømer et al., FIG. 2) was measured blindly by computer-assisted morphometry.

wild-type mice = assay: as above; assay type: in vivo, mouse; conditions: 100 mg/kg daily for 7 days after skin wounding
Experimental: as §5

mouse uPA = assay: Mouse specific uPA ELISA of xenograft tumour homogenates; assay type: in vivo; conditions: versus tumours from mock-treated animals, 125 mg/kg BB-94 daily
Description: Tumours from untreated control mice and from mice receiving BB94 were homogenized and assayed for mouse uPA content using a mouse specific uPA ELISA.

[12] = Biological half-life of aprotinin in blood plasma; assay type: in vivo, mouse; conditions: single i.p. injection of 2.1 mg
Experimental: Fifteen mice (weighing approx. 25 g each) were injected i.p. with 0.75 ml of aprotinin solution (20,000 KIU/ml; approx. 2.1 mg) and at time intervals of 0.5, 1.5, 3.0, 6.0 and 24 h thereafter three mice were sacrificed and blood collected by cardiac puncture into citrate anti-coagulant tubes. Each plasma sample was ultrafiltrated through a 20,000 MW cut-off membrane, and the aprotinin level in the ultrafiltrate was determined by inhibition of the calorimetric activity of a standard trypsin solution.

[13] = 2.5 mg/mouse i.p. daily from weaning day 2, weighed day 5, single animals
[14] = 2.5 mg/mouse i.p. daily, weaning day 5

Q: With `CNC(=O)[C@H](Cc1c[nH]c2ccccc12)NC(=O)[C@@H](CC(=O)NO)CC(C)C` [Galardin™] as the compound, how does the Ki (plasmin) read?
A: Its Ki is “in the millimolar range”.

Q: And the “Gland 4 Weight” value (plg^+/+ mice [1]; [13])?
A: Its value is 188 mg and 198 mg and 146 mg.

Q: And the “Mean Weight (gland 4)” value (plg^+/+ mice [1]; [14])?
A: Its value is 177 mg.

Q: What about the “% Control (gland weight)” value (plg^+/+ mice [1]; control = plg^+/+ untreated) of the same compound?
A: The value was 162%.

Q: What about the “Gland 4 Weight” value (plg^−/− mice [2]; [13]) of the same compound?
A: Its value is 262 mg and 342 mg and 251 mg.

Q: What about the “Mean Weight (gland 4)” value (plg^−/− mice [2]; [14]) of the same compound?
A: The value was 285 mg.

Q: And the “% Control (gland weight)” value (plg^−/− mice [2]; control = plg^+/+ untreated)?
A: Its value is 262%.

Q: What about the “Mean Weight ± SD (uterus)” value (plg^+/+ mice [3]; 90 mg/kg i.p. daily, fifth day post-partum) of the same compound?
A: The value was 221 ± 65.3 mg.

Q: And the “Weight (uterus)” value (plg^+/+ mice [3]; 90 mg/kg i.p. daily, fifth day post-partum, single animals, 90 mg/kg)?
A: Its value is 288 mg and 285 mg and 135 mg and 206 mg and 192 mg.

Q: What about the “change in 5 day postpartum uterine weight versus control” value (plg^+/+ mice [3]; 90 mg/kg, p=0.158) of the same compound?
A: Its value is “did not produce a significant increase”.

Q: What about the “change in 5 day postpartum uterine weight versus control” value (plg^−/− mice [4]; Plg^−/− mice, 90 mg/kg, p=0.012) of the same compound?
A: Its value is “significant increase”.

Q: What about the “Mean Weight ± SD (uterus)” value (plg^−/− mice [4]; plg^−/− mice, 90 mg/kg i.p. daily, fifth day post-partum) of the same compound?
A: Its value is 337 ± 70.9 mg.

Q: And the “Weight (uterus)” value (plg^−/− mice [4]; plg^−/− mice, 90 mg/kg i.p. daily, fifth day post-partum, single animals, 90 mg/kg)?
A: Its value is 311 mg and 408 mg and 236 mg and 328 mg and 401 mg.

Q: And the “healed wounds 38 days after wounding” value (plg^−/− mice [5])?
A: Its value is “none”.

Q: And the “healed wounds after 80 days” value (plg^−/− mice [5])?
A: Its value is “none”.

Q: And the “expression of gelatinase A and stromelysin-3 mRNA in granulation tissue fibroblasts” value [6]?
A: The value was “upregulated”.

Q: And the “expression of gelatinase B, collagenase-3 and stromelysin-1 mRNA in leading-edge keratinocytes” value [6]?
A: Its value is “dramatically upregulated”.

Q: What about the “survival of the tumour-bearing mice” value (Lewis lung carcinoma; 10 mg TA and 13,000 KIU AP per day i.p., 1.8 mg Galardin per day per mouse) of the same compound?
A: Its value is “considerable prolongation”.

Q: What about the “long-term survival (mice per group of 17)” value (Lewis lung carcinoma; treatment stopped day 50) of the same compound?
A: Its value is “no long-term survivors”.

Q: What about the Ki [7] of the same compound?
A: Its Ki is “in the millimolar range”.

Q: And the “wounds healed after 38 days” value (plg^+/+ mice [8]; Galardin 2.5 mg i.p. once daily)?
A: The value was 22%.

Q: And the Ki (stromelysin-1 (MMP-3))?
A: Its Ki is 30 nM.

Q: And the production of offspring (plg^+/+ mice [9])?
A: The production of offspring was “unaffected”.

Q: What about the “% pregnant” value (plg^−/− mice [10]; 2.5 mg i.p. daily day 3.5 to 18.5) of the same compound?
A: Its value is 25%.

Q: What about the Pregnancies (plg^−/− mice [10]; 2.5 mg i.p. daily day 3.5 to 18.5, 4 mice) of the same compound?
A: The Pregnancies was 1*.

Q: What about the “% pregnant” value (plg^−/− mice [10]; 2.5 mg i.p. daily day 3.5 to 18.5, listed as G) of the same compound?
A: The value was 25* %.

Q: And the Pregnancies (plg^+/+ mice [11])?
A: The Pregnancies was 3.

Q: And the “keratinocyte migration distance (mean value±standard deviation)” value (Plg-deficient mice)?
A: The value was 208±60 arbitrary units.

Q: And the “keratinocyte migration distance (mean value±standard deviation)” value (wild-type mice)?
A: The value was 268±80 arbitrary units.

Q: With `CNC(=O)[C@H](Cc1ccccc1)NC(=O)[C@H](CC(C)C)[C@H](CSc1cccs1)C(=O)NO` [BB-94, Batimastat] as the compound, how does the “upregulation of mouse uPA in the tumours” value (mouse uPA) read?
A: Its value is roughly 2 fold.

Q: For aprotinin, which half life ([12]; mouse plasma) is on record?
A: The half life was “approx. 3 h”.

Q: And the plasma level ([12]; mouse)?
A: Its plasma level is “approx. 25 μg/ml”.

Q: And the “time after which all wounds were healed” value (plg^+/+ mice [8])?
A: The value was 24 days.

Q: With `NC[C@H]1CC[C@H](C(=O)O)CC1` [tranexamic acid] as the compound, how does the “time after which all wounds were healed” value (plg^+/+ mice [8]) read?
A: The value was 17 days.
